Measured values as given in patent US11510931B2, “Compositions and methods for treating ophthalmic conditions” (MEDICON PHARMACEUTICALS, INC., priority 2016, dated 2022).

What was measured:
Staphylococcus aureus = experiment: Disk diffusion antimicrobial susceptibility with PS-impregnated antibiotic disks; type: cell-based; settings: 24 h, mean ± SD
Protocol: Briefly, Staphylococcus aureus grown in culture was seeded evenly on Muller-Hinton II Agar plates (BD Diagnostic Systems) at the standard concentration of 2×10^8 colony-forming units per mL. Antibiotic antimicrobial susceptibility disks (Thermo Scientific Oxoid™) were impregnated with one of six concentrations of PS (0%, 1%, 2%, 3%, 6%, 9%); 10 μL of each was evenly dispensed on each disk. An additional control was disks with no PS and no vehicle. The growth of bacteria around each disk was monitored and the area of “no growth” around each disk was measured 24 h later.

PGE2 = PGE2 levels in tears and cornea of rabbits by ELISA; type: in vivo, rabbit; settings: for PGE2 levels in the cornea: administered once topically, 1 h later, FIG. 9B; for PGE2 levels in the cornea, % of the vehicle value: day 6, PS 2.3%, diclofenac 0.1%
Protocol: The effects of PS, ketorolac and dicofenac (the latter two ophthalmic NSAIDs known to induce corneal melt) on the tear levels of PGE2 in rabbits with concanavalin A-induced dry eye were compared. Three eye drops of PS 1.5% or of commercially available ketorolac 0.5% were given at 0 time, and 1 h later to rabbits with concanavalin A-induced DED. Tears were obtained at 2 h and the levels of PGE2 were determined by ELISA. PGE2 in tears of naïve rabbits (not exposed to concanavalin A nor treated) was also measured. The PGE2 levels (mean±SEM) were: Naïve, 110.4±12.6 ng/ml; PS-treated, 115.4±15.8 ng/ml; Ketorolac-treated, 77.7±8.7 ng/ml. The difference in PS vs. ketorolac was significant, p<0.02; as was the difference in ketorolac vs naïve, p<0.03. Regarding this parameter, PS differs radically form ketorolac, which induces corneal melt.
Levels of PGE2 in the corneas of three groups of rabbits were determined by ELISA. Rabbits were treated with PS 1.6% or ketorolac 0.5% eye drops topically applied to their eyes or were not treated (naïve group). Results in pg/mg protein (mean±SEM). Naïve=787.3±96.3; PS=880.6±110.3; Ketrolorac=247.2±187.4 (p<0.01 vs PS).
Rabbits with DED induced by concanavalin A as above were treated for 6 days with vehicle, or PS 2.3% or ketorolac 0.5% or diclofenac 0.1%. Compared to the vehicle group, on day 6 the PGE2 levels in the cornea were 106% of the vehicle value in the PS group (not a statistically significant difference), 1.3% in the ketorolac group (p<0.0001 vs. vehicle, and 2.3% in the diclofenac group (p<0.0001 vs. vehicle).
It was determined that the levels of PGE2 in rabbit tears in three groups of rabbits, naïve and those with Con A-induced DED that were treated for 1 week either with PS or vehicle.
In an acute experiment, administered once topically to the eyes of four groups of rabbits with Con A-induced DED was one of the following: vehicle, PS, ketorolac or diclofenac; the latter two are NSAIDs used for the treatment of ocular inflammation and pain. It was determined that the levels of PGE2 in the cornea of these rabbits obtained 1 h later as well as in the corneas of naïve rabbits.

[1] = tested on: concanavalin A-induced dry eye in rabbits; experiment: Concanavalin A (Con A)-induced dry eye disease (DED) model in rabbits: TBUT, Schirmer test, tear osmolarity, tear lactoferrin; type: in vivo, rabbit; settings: after 1 week of treatment with NSAID; FIG. 5
Protocol: To assess the efficacy of PS on DED an improved concanavalin A model was used. In the concanavalin A model, dry eye is induced by injecting the lacrimal glands of a mammal with concanavalin A, a selective T cell mitogen that induces a lymphocytic infiltrate in these glands. The concanavalin A model is generally described in (Barabino S. Animal models of dry eye. Arch Soc Esp Oftalmol. 2005; 80(12):693-4). Concanavalin A was injected to the lacrimal glands under ultrasound guidance, thus eliminating injections to the vicinity of the gland (as opposed to the gland itself). The head and the tail of the major lacrimal gland of the rabbit were injected separately. The dose of concanavalin A was optimized for DED signs.
In the testing described below, four markers of DED are monitored: the tear break up time (TBUT), the Schirmer test, tear osmolarity, and tear lactoferrin levels. All assays were performed at the same clock time (±1 hr) to avoid assay variability on account of circadian variations.
In an efficacy experiment using the concanavalin A model, one group of rabbits was treated with compound 5, also known as phosphosulindac and abbreviated as PS, 1.5% eye drops and one group with vehicle. […] It is thus clear that PS applied topically suppresses DED.
Con A was injected under ultrasound guidance into all the lacrimal glands and the success of the injection was verified by a post-injection ultrasound image (see FIG. 1 and FIG. 2). […] This variation explains why the blind injections recommended in the original method are often unsuccessful. This was confirmed by mixing the Con A solution with methylene blue and tracking its course after injection. In about ⅓ of the cases, Con A ended up outside the gland.
Four parameters of efficacy were evaluated instead of the usual one or two. They include (a) the tear break up time (TBUT), determined using 0.2% fluorescein over the eye and recording the time taken to develop black dots, lines or obvious disruption of the fluorescein film; (b) tear osmolarity, measured using TearLab Osmolarity Test and following the manufacturer's instructions (TearLab Corp., San Diego, Calif.); (3) Schirmer tear test (STT), determined using Schirmer strips (EagleVision, Denville, N.J.) inserted between the cornea and the palpebral conjunctiva at the mid-point of the lower lid and measuring the length of moistened strip at 5 min; and (4) tear lactoferrin levels measured by ELISA kit (MyBiosource, San Diego, Calif.) following the instructions of the manufacturer. All four have been used in clinical practice and correlate with the clinical activity of the disease. The STT is the least reliable and, as result, it is clinically used less than half as frequently as TBUT.
The injections of Con A to the lacrimal glands were repeated weekly as needed. When longer than a 1-week periods of study are needed, repeat injections prolong dry eye for at least 3 weeks, making the originally acute model chronic.
PS Suppresses Con A—Induced Dry Eye in Rabbits. The effect of PS on dry eye was determined in New Zealand White (NZW) rabbits, 2-3 kg (Charles River Labs, Waltham, Mass.). These rabbits were housed singly in rooms with strict temperature (70±5° F.) and humidity (45±5%) control and acclimated for at least 2 weeks prior to induction of dry eye by injection of Con A as above. NZW rabbits with Con A-induced dry eye (three sets of injections) were treated with PS formulated as nanoparticles and administered topically as eye drops 3×/day for 21 days, starting on the day of Con A injection. […] Similar results were obtained on days 5 and 14 (data not shown).
Using this model, we compared the effect of PS to that of cyclosporine and lifitegrast. Rabbits were treated for 6 days with PS as above or cyclosporine 0.05% or lifitegrast 5% eye drops 3×/day. In addition to determining TUBT, osmolarity and STT, we measured the levels of IL-8 and IL-1β in the ILGs of the rabbits harvested at euthanasia. […]

MMPs = experiment: General MMP activity in rabbit cornea (FRET peptide); type: in vivo
Protocol: The general activity of MMPs was determined in the corneas of three groups of rabbits. This MMP activity assay employs a fluorescence resonance energy transfer (FRET) peptide as a generic MMP indicator. Rabbits were treated with PS 1.6% or ketorolac 0.5% eye drops topically applied to their eyes or were not treated (naïve group). Results in relative fluorescence units (RFU)/mg protein (mean±SEM). Naïve=1,328±123; PS=749±218; Ketoroloac=1,272±106 (p<0.03 vs PS).
In an acute experiment, naïve rabbits were treated with either PS or ketorolac (both administered topically) for 1 h and determined the activity of MMP in the cornea. This assay determines the activity of MMPs collectively in a given tissue.

[2] = tested on: cornea of New Zealand white rabbits; experiment: Corneal touch threshold (CTT), Cochet-Bonnet aesthesiometer; type: in vivo, rabbit; settings: Lidocaine 1%
Protocol: The analgesic effect of PS was determined by measuring the corneal touch threshold (CTT) using the Luneau Cochet-Bonnet Aeshesiometer (Western Ophthalmics, Lynwood, Wash.), an adjustable nylon monofilament with a defined diameter, which is applied in different lengths to the center of the cornea. This device is generally described in Lima L, Lange R R, Turner-Giannico A, Montiani-Ferreira F. Evaluation of standardized endodontic paper point tear test in New Zealand white rabbits and comparison between corneal sensitivity followed tear tests. Vet Ophthalmol. 2015; 18 Suppl 1:119-24.
A stimulus produced by the filament that reaches the CTT induces a corneal reflex, consisting of prompt eyelid closure. The CTT is quantified as centimeter length of the filament necessary to cause the blink reflex.
The CTT is determined before (baseline) and at various time points after the application of the test compound (PS). PS was formulated either in β-cyclodextrin (42 or 8 mg/ml) or in a nanocarrier (19 mg/ml). The test drug was formulated in a nanocarrier by the emulsion and evaporation method (Vauthier C, Bouchemal K. Methods for the Preparation and Manufacture of Polymeric Nanoparticles. Pharmaceutical Research; 2009; 26:1025-1058). The formulated stable drug suspension consisted of polylactic acid and polyethylene glycol (PLLA(10k)-PEG(2k)); sodium cholate; and PS. The vehicle control was either β-cyclodextrin or the nanocarrier without PS. Commercially available lidocaine 1% was used as a positive control.
To each eye of adult New Zealand white rabbits was applied […] drops of PS or vehicle or lidocaine, with 5 minutes between each drop. The time of the last drop was taken as the 0 time.
The analgesic effect of PS was further examined on the surface of the eye by determining the corneal touch threshold (CTT) using the Luneau Cochet-Bonnet Aesthesiometer (Western Ophthalmics, Lynwood, Wash.) an adjustable nylon monofilament with a defined diameter, which is applied in different lengths to the center of the cornea.

[3] = tested on: chorioallantoic membrane (CAM); experiment: Chorioallantoic membrane (CAM) neovascularization assay; type: in vivo, chicken; settings: VEGF alone; day 4; Mean ± SEM
Protocol: Second, the effect of PS on new vessel formation (neovascularization) was evaluated using the chorioallantoic membrane (CAM) assay. In this assay, fertilized white chicken eggs (SPF Premium, Charles River Laboratory, North Franklin, Conn.) were incubated at 37° C. in 70% humidity for 3 days. The embryos were then incubated ex vivo in a sterile Petri dish for 7 days. Gelatin sponges adsorbed with or without VEGF plus PS or water (vehicle control) were implanted on the CAM surface and the neovasculature was counted on day 4 post implantation under a dissecting microscope.

[4] = antibiotic disk with PS 0% (vehicle only)
[5] = Con A DED rabbits, ketorolac 0.5%
[6] = rabbits, PS 1.6% or ketorolac 0.5% eye drops, mean±SEM

Molecule | Inhibition Zone (Staphylococcus aureus; [4]) [mm] | Inhibition Zone (Staphylococcus aureus; antibiotic disk with PS 1%) [mm] | Inhibition Zone (Staphylococcus aureus; antibiotic disk with PS 2%) [mm] | Inhibition Zone (Staphylococcus aureus; antibiotic disk with PS 3%) [mm] | Inhibition Zone (Staphylococcus aureus; antibiotic disk with PS 6%) [mm] | Inhibition Zone (Staphylococcus aureus; antibiotic disk with PS 9%) [mm] | PGE2 levels in the cornea (PGE2; Con A DED rabbits) | PGE2 levels in the cornea, % of the vehicle value (PGE2; [5]) [%] | TBUT, osmolarity and STT [1] | also measured
O=C(O)c1cn(C2CC2)c2cc(N3CCNCC3)c(F)cc2c1=O [Ciprofloxacin] | 30.0 ± 0.0 | 30.3 ± 0.6 | 29.7 ± 0.6 | 29.3 ± 0.6 | 27.7 ± 0.4 | 29.7 ± 0.6 |  |  |  | 
O=C(c1ccccc1)c1ccc2n1CCC2C(=O)O (stereo not shown) [Ketorolac, ketorolac] |  |  |  |  |  |  | suppressed nearly completely | 1.3 | failed to improve | PGE2 levels in tears (PGE2; Con A DED rabbits, three eye drops at 0 and 1 h, tears at 2 h, PS 1.5%, ketorolac 0.5%, mean±SEM): 77.7 ± 8.7 ng/mL; PGE2 levels in the corneas (PGE2; [6]): 247.2±187.4 pg/mg protein; MMP activity in the cornea (MMPs; naïve rabbits, topical, 1 h): failed to affect; general activity of MMPs in the corneas (MMPs; [6]): 1,272±106 RFU/mg protein
C[C@H]1COc2c(N3CCN(C)CC3)c(F)cc3c(=O)c(C(=O)O)cn1c23 [Levofloxacin] | 32.3 ± 0.6 | 32.7 ± 0.6 | 32.0 ± 0.0 | 31.7 ± 0.6 | 32.3 ± 1.5 | 31.0 ± 1.0 |  |  |  | 
CCN(CC)CC(=O)Nc1c(C)cccc1C [Lidocaine, lidocaine, reference compound] |  |  |  |  |  |  |  |  |  | Corneal touch threshold (CTT) ([2]; 1 min): 1.5 ± 1.3 centimeter; Corneal touch threshold (CTT) ([2]; 5 min): 2.3 ± 1.5 centimeter; Corneal touch threshold (CTT) ([2]; 10 min): 3.1 ± 1.9 centimeter; Corneal touch threshold (CTT) ([2]; 20 min): 4.0 ± 1.3 centimeter; Corneal touch threshold (CTT) ([2]; 30 min): 5.8 ± 0.6 centimeter; Corneal touch threshold (CTT) ([2]; 45 min): 5.8 ± 0.6 centimeter; Corneal touch threshold (CTT) ([2]; 60 min): 6.0 ± 0.0 centimeter; Corneal touch threshold (CTT) ([2]; baseline): 6.0 ± 0.0 centimeter
O=C(O)Cc1ccccc1Nc1c(Cl)cccc1Cl [diclofenac] |  |  |  |  |  |  | suppressed nearly completely | 2.3 | failed to improve | 
VEGF [reference compound] |  |  |  |  |  |  |  |  |  | # of new vessels [3]: 62.3 ± 1.8
